In one data set the test system is Candida (seven species). Briefly: in vitro antifungal activity (geometric mean MIC), Candida. The note with it: for MIC: Candida, Candida (seven species). The data set is classed as cell-based. The source says: (§1) The in vitro antifungal results are summarized in Table II and provide the geometric mean MIC (mcg/mL).
A further data set in a line: iv LD50 in mice. To be noted: mouse, in vivo.
The subject of data set [1] is Dermatophytes (six species). Briefly: in vitro antifungal activity (geometric mean MIC), dermatophytes. Format: cell-based. To be noted: for MIC: Dermatophytes (six species).
Description: as §1

The subject of the next data set is Candida. The data set can be described thus: intravaginal Candida infection in hamsters. Format: in vivo.
Setting [2] is: SDB (Sabouraud dextrose broth medium).

Values after ≈ are worked out from the molar mass of the structure shown. Some results are limits rather than exact numbers.

With `N=C(N)NCCCCCCCCC(O)CCCCCCCC1NC(=N)NC1CC(O)CNC(=N)N` (stereo not drawn) [compound of this invention], the minimum inhibitory concentration (MIC) against Candida (seven species) (EMEM (Eagles Minimum Essential Medium)) was less than 0.03 µg/mL; with Candida (seven species) (MA Medium), not above 1.4 µg/mL; against Candida (seven species) (setting [2]), not below 58 µg/mL; in data set [1] (MA Medium), 2.5 µg/mL (≈ 5.02 µM); in data set [1] (setting [2]) it was not above 0.13 µg/mL. The “in vitro antifungal activity” value (with Candida (seven species) (seven species of Candida); in data set [1] (six species of dermatophytes)) was “very good in vitro antifungal activity” throughout. Besides, in the data set “iv LD50 in mice”, the LD50 was approximately 1.5 mg/kg. Besides, the “activity against an intravaginal Candida infection” value with Candida is “slight activity”.
